According to PubChem BioAssay (NCI):
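1) Cells in 96-well plates. 2) Compound, 48 h, 5 concentrations. 3) Linear interpolation between surrounding doses. 4) Unreached endpoint = highest concentration. GI50 marks 50% less growth. The concentration for full growth arrest is given as TGI.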

Columns and labels:
Assay in all cases: NCI-60 cell line screen, 48 h
ACHN renal = tested on: ACHN renal
CAKI-1 renal = tested on: CAKI-1 renal
COLO 205 colon = tested on: COLO 205 colon
M14 melanoma = tested on: M14 melanoma
OVCAR-4 ovarian = tested on: OVCAR-4 ovarian
OVCAR-5 ovarian = tested on: OVCAR-5 ovarian
RXF 393 renal = tested on: RXF 393 renal
SF-268 CNS = tested on: SF-268 CNS
SK-MEL-28 melanoma = tested on: SK-MEL-28 melanoma
UO-31 renal = tested on: UO-31 renal

With `COc1ccc(-c2ccc(-c3ccc(C(=N)N)nc3)s2)cc1` the GI50 (ACHN renal) was 1.84 µM, the TGI (ACHN renal) was 3.24 µM and the GI50 (CAKI-1 renal) was 1.64 µM. The TGI (CAKI-1 renal) was 3 µM, the GI50 (COLO 205 colon) was 1.89 µM and the TGI (COLO 205 colon) was 3.92 µM. It also gave a GI50 (M14 melanoma) of 1.8 µM, a TGI (M14 melanoma) of 3.35 µM and a GI50 (OVCAR-4 ovarian) of 1.79 µM. For the same compound, the TGI (OVCAR-4 ovarian) was 3.3 µM, the GI50 (OVCAR-5 ovarian) was 1.67 µM and the TGI (OVCAR-5 ovarian) was 3.11 µM. For the same compound, the GI50 (RXF 393 renal) was 1.77 µM, the TGI (RXF 393 renal) was 3.34 µM and the GI50 (SF-268 CNS) was 1.76 µM. It also gave a TGI (SF-268 CNS) of 3.28 µM, a GI50 (SK-MEL-28 melanoma) of 1.75 µM and a TGI (SK-MEL-28 melanoma) of 3.27 µM. The GI50 (UO-31 renal) was 1.64 µM and the TGI (UO-31 renal) was 3.08 µM.
